Experimental data as given in EP0022408A1, “Derivatives of alpha-phenyl-2-pyrrolidine methanol and their salts, process for their preparation, use as medicines and compositions containing them” (ROUSSEL-UCLAF, priority 1979, dated 1981).
Counter-ions that a name gives are not always drawn.

Tests used:
[1] = system: trachée isolée de cobaye; test: Action on isolated guinea pig trachea (carbachol-induced contractions); format: cell-based; conditions: Cavia porcellus; product at 3.10^-6M; carbachol 0,4µ/ml; Krebs Henseleit solution, 37°C; read-out: antagonise les contractions provoquées par le carbachol
Protocol: 1) Action sur la trachée isolée de cobaye
On prélève les trachées de cobaye que l'on vient de sacrifier par un coup sur la nuque, les trachées sont découpées en spirale et suspendues dans une solution de Krebs Henseleit, à la température de 37°C dans laquelle barbote un mélange de 95 % d'oxygène et 5 % de gaz carbonique.
On ajoute dans la solution du carbachol comme agoniste pour provoquer des contractions.
Le produit de l'exemple 1 à la concentration de 3.10^-6M, antagonise de 100 % les contractions provoquées par le carbachol à la concentration de 0,4µ/ml.

[2] = system: bronchospasme provoqué par l'histamine; test: Action on histamine-induced bronchospasm in the guinea pig (Konzett and Rossler method); format: in vivo, cobaye; conditions: 1µg/kg i.v. one minute before histamine (2 à 10µg/kg i.v.)
Protocol: -2) Action sur le bronchospasme provoqué par l'histamine chez le cobaye
Suivant la méthode de Konzett et Rossler Arch. exp. Path. Pharmakol. 195 71 (1940), de l'histamine est administrée à une dose variant de 2 à 10µg/kg i.v. selon la sensibilité de l'animal.
L'enregistrement de la pression produite par l'air expulsé est effectué à l'aide d'un microdynamomètre Apelab.
Le produit à tester est injecté en solution dans le sérum physiologique par voie i.v. une minute avant l'histamine.
On enregistre un éventuel effet du produit seul et son action antagoniste vis-à-vis de l'agent constricteur.
L'activité antagoniste est exprimée en pourcentage de protection par rapport au bronchospasme initial dû à l'histamine.

[3] = system: pression artérielle carotidienne; test: Hypotensive activity in anaesthetised rats (carotid arterial pressure); format: in vivo, rats mâles de souche Sprague Dawley S.P.F.; conditions: rats anaesthetised with nembutal
Protocol: 3) Déterminiation de l'activité hypotensive
L'activité hypotensive a été étudiée sur des rats mâles de souche Sprague Dawley S.P.F. pesant 300 g environ et anesthésiés au nembutal (50 mg/kg par voie intraveineuse).
Le produit testé a été administré par voie intraveineuse dans la veine jugulaire.
La pression artérielle carotidienne a été mesurée avant et après administration du produit testé.
Le tableau ci-après indique les variations exprimées en pourcentage de la pression artérielle, après administration du produit testé par rapport à la pression artérielle initiale ainsi que le temps pendant lequel se manifestent ces variations.

[4] = system: souris; test: Acute toxicity, intraperitoneal, mouse; format: in vivo; conditions: mortality recorded 48 hours after administration
Source text: 5) Etude de la toxicité aigüe
On évalue les doses létales 50 (DL 50) des produits après administration par voie intrapéritonéale chez la souris.
La mortalité est relevée quarante-huit heures après l'administration des produits.

[5] = system: Hypothermie à la réserpine; test: Antidepressant activity: reserpine hypothermia; format: in vivo, souris mâles; conditions: 10 mg/kg I.P; reserpine 4 mg/kg intraperitoneal; rectal temperature measured for 5 hours
Protocol: (§1) 6) Détermination de l'activité antidénpressive
a) Hypothermie à la réserpine
Le test est effectué sur un lot de 10 souris mâles auxquelles on administre par voie intrapéritonéale 4 mg/kg de réserpine.
La température rectale des animaux est mesurée pendant 5 heures à l'aide d'un thermomètre électrique.

[6] = system: Hypothermie à l'apomorphine; test: Antidepressant activity: apomorphine hypothermia; format: in vivo, souris mâles; conditions: Mus musculus, ip; intraperitoneal, before apomorphine hydrochloride 16 mg/kg intraperitoneal; rectal temperature; read-out: DE 50 (dose qui réduit de 50 % l'écart de température observé entre les témoins)
Protocol: as §1
b) Hypothermie à l'apomorphine
Le test est effectué sur un lot de 10 souris mâles.
On induit chez les animaux une hypothermie par injection intrapéritonéale de 16 mg/kg de chlorhydrate d'apomorphine. Le composé testé est administré par voie intrapéritonéale 30 mm avant l'injection d'apomorphine; la température rectale des animaux est mesurée 30 mm après l'injection d'apomorphine.
Des animaux témoins reçoivent soit du soluté physiologique, soit de l'apomorphine; on mesure l'écart de température entre les témoins ayant reçu le soluté physiologique, les témoins ayant reçu l'apomorphine seule et les animaux ayant reçu l'apomorphine et le composé testé.
On appelle DE 50 la dose de composé qui réduit de 50 % l'écart de température observé entre les témoins, […]

| Structure (SMILES) | inhibition at 3 µM [1] | inhibition de la broncho constriction à l'histamine (pourcentage de protection par rapport au bronchospasme initial) ([2]; listed as exemple 1) | Variations % de la pression artérielle ([3]; 1 mg/kg intravenous (jugular vein), relative to initial pressure) | Durée d'action ([3]; 1 mg/kg intravenous) | dose létale 50 (DL 50) ([4]; listed as exemple 1, 2880 min) | apparition de l'hypothermie provoquée par la réserpine [5] | ED50 [6] | inhibition de la broncho constriction à l'histamine (pourcentage de protection par rapport au bronchospasme initial) ([2]; listed as exemple 3) | dose létale 50 (DL 50) ([4]; listed as exemple 3, 2880 min) |
| --- | --- | --- | --- | --- | --- | --- | --- | --- | --- |
| Oc1ccc(C(O)C2CCCN2)cc1O (single isomer, unassigned) [Exemple 1, Oxalate acidede 4-[α-hydroxy(pyrrolidin-2-yl)méthyl]1,2-benzène diol (isomère A)] | 100% | 52% | -35% | >65 min | 250 mg/kg | retarde l'apparition de l'hypothermie provoquée par la réserpine | 25 mg/kg |  |  |
| Oc1ccc(C(O)C2CCCN2)cc1O (single isomer, unassigned) [Exemple 3, Chlorhydrate du 4-/α-hydroxy(pyrrolidin-2-yl) méthyl/1,2-benzène diol (isomère B)] |  |  |  |  |  |  |  | 17% | 40 mg/kg |
